Source: ChEMBL document CHEMBL5360534, “Synthetic α-glucosidase inhibitors as promising anti-diabetic agents: Recent developments and future challenges” (Eur J Med Chem, 2023)
pIC50: −log10 of the molar value.

Experiments:
Alpha-glucosidase [1] = biological target: T1, Alpha-glucosidase (Saccharomyces cerevisiae S288c, UniProt P53341+P38158+P07265); assay: Inhibition of Saccharomyces cerevisiae alpha-glucosidase; assay type: protein assay
Alpha-glucosidase [2] = biological target: T1, Alpha-glucosidase; assay: Competitive inhibition of Saccharomyces cerevisiae alpha-glucosidase assessed as inhibition constant; assay type: protein assay
Alpha-glucosidase [3] = biological target: T1, Alpha-glucosidase; assay: Inhibition of Saccharomyces cerevisiae alpha-glucosidase using p-nitrophenyl-alpha-D-glucopyranoside as substrate preincubated for 15 mins followed by substrate addition and measured after 30 mins by spectrophotometric analysis; assay type: protein assay
Alpha-glucosidase [4] = biological target: T1, Alpha-glucosidase; assay: Inhibition of Saccharomyces cerevisiae alpha-glucosidase using p-nitrophenyl-alpha-D-glucopyranoside as substrate preincubated for 10 mins followed by substrate addition and measured after 30 mins by absorbance based microplate reader analysis; assay type: protein assay
[5] = Inhibition of alpha-glucosidase (unknown origin) using p-nitrophenyl-alpha-D-glucopyranoside as substrate preincubated for 15 mins followed by substrate addition and measured after 15 mins by absorbance based microplate reader analysis; design: species or system Homo sapiens
[6] = Inhibition of Saccharomyces cerevisiae alpha-glucosidase type I using p-nitrophenyl-alpha-D-glucopyranoside as substrate preincubated for 10 mins followed by substrate addition and measured after 30 mins by spectrophotometric analysis
[7] = biological target: Alpha-glucosidase (Saccharomyces cerevisiae S288c) (UniProt P53341+P38158+P07265); assay: Potency index, ratio of acarbose IC50 to test compound IC50 for inhibition of Saccharomyces cerevisiae alpha-glucosidase; assay type: protein assay
Alpha-glucosidase [8] = biological target: T1, Alpha-glucosidase; assay: Inhibition of Saccharomyces cerevisiae alpha-glucosidase using p-nitrophenyl glucopyranoside as substrate preincubated for 10 mins followed by substrate addition and measured after 20 mins by spectrophotometric analysis; assay type: protein assay
Alpha-glucosidase [9] = biological target: T1, Alpha-glucosidase; assay: Competitive inhibition of Saccharomyces cerevisiae alpha-glucosidase using pNPG as substrate assessed as inhibition constant preincubated for 15 mins followed by substrate addition and measured after 20 mins by spectrophotometric analysis; assay type: protein assay
[10] = Inhibition of alpha-glucosidase (unknown origin) using p-nitrophenyl-alpha-D-glucopyranoside as substrate preincubated for 15 mins followed by substrate addition and measured after 30 mins by multiplate spectrophotometric analysis; design: species or system Homo sapiens
Alpha-glucosidase [11] = biological target: T1, Alpha-glucosidase; assay: Inhibition of Saccharomyces cerevisiae alpha-glucosidase using pNPG as substrate preincubated for 10 mins followed by substrate addition and measured after 20 mins by spectrophotometric analysis; assay type: protein assay
[12] = Inhibition of alpha-glucosidase (unknown origin) using p-nitrophenyl-alpha-D-glucopyranoside as substrate preincubated for 5 mins followed by substrate addition and measured after 5 mins by spectrophotometric analysis; design: species or system Homo sapiens
Alpha-glucosidase [13] = biological target: T1, Alpha-glucosidase; assay: Competitive inhibition of Saccharomyces cerevisiae alpha-glucosidase using pNPG as substrate assessed as inhibition constant preincubated for 10 mins followed by substrate addition and measured after 20 mins by spectrophotometric analysis; assay type: protein assay
Alpha-glucosidase [14] = biological target: T1, Alpha-glucosidase; assay: Inhibition of Saccharomyces cerevisiae alpha-glucosidase using p-nitrophenyl-alpha-D-glucopyranoside as substrate preincubated for 5 mins followed by alpha-glucosidase addition and measured after 15 mins by UV-visible spectrophotometric analysis; assay type: protein assay
Alpha-glucosidase [15] = biological target: T1, Alpha-glucosidase; assay: Inhibition of Saccharomyces cerevisiae alpha-glucosidase using p-nitrophenyl-alpha-D-glucopyranoside as substrate preincubated for 15 mins followed by substrate addition and measured after 20 mins by spectrophotometric analysis; assay type: protein assay
Alpha-glucosidase [16] = biological target: T1, Alpha-glucosidase; assay: Inhibition of Saccharomyces cerevisiae alpha-glucosidase using p-nitrophenyl-alpha-D-glucopyranoside as substrate preincubated for 5 mins followed by substrate addition and measured after 5 mins by absorbance based analysis; assay type: protein assay
[17] = Inhibition of alpha-glucosidase (unknown origin) using p-nitrophenylglucopyranoside as substrate preincubated for 10 mins followed by substrate addition and measured after 30 mins by absorbance based microplate reader analysis; design: species or system Homo sapiens
Alpha-glucosidase [18] = biological target: T1, Alpha-glucosidase; assay: Inhibition of Saccharomyces cerevisiae alpha-glucosidase using p-nitrophenyl-alpha-D-glucopyranoside as substrate preincubated for 10 mins followed by substrate addition and measured after 30 mins by absorbance based analysis; assay type: protein assay
[19] = Inhibition of alpha-glucosidase (unknown origin) assessed as reduction in starch digestion preincubated with alpha-amylase for 20 mins followed by alpha-glucosidase addition and measured after 30 mins by absorbance based analysis; design: species or system Homo sapiens
[20] = Inhibition of alpha-glucosidase (unknown origin) using p-nitrophenylglucopyranoside as substrate preincubated for 10 mins followed by substrate addition and measured by absorbance based analysis; design: species or system Homo sapiens
Homo sapiens [21] = species: Homo sapiens; assay: Inhibition of alpha-glucosidase (unknown origin) using p-nitrophenylglucopyranoside as substrate at 100 microg/ml preincubated for 10 mins followed by substrate addition and measured by absorbance based analysis relative to control; settings: dose 100.0 µg/ml
[22] = Inhibition of alpha-glucosidase (unknown origin) using p-NPG as substrate preincubated for 5 mins followed by substrate addition and measured after 30 mins by absorbance based analysis; design: species or system Homo sapiens
[23] = Inhibition of alpha-glucosidase (unknown origin) using pNPG as substrate preincubated for 20 mins followed by substrate addition and measured after 1 hr by absorbance based analysis; design: species or system Homo sapiens
Homo sapiens [24] = species: Homo sapiens; assay: Potency index, ratio of acarbose IC50 to test compound IC50 for inhibition of alpha-glucosidase (unknown origin)
[25] = Inhibition of alpha-glucosidase (unknown origin); design: species or system Homo sapiens

In the case of `O=C(/C=C\c1ccc(OCc2cn(Cc3ccc(O)cc3)nn2)cc1)NCCc1c[nH]c2ccccc12`, the IC50 (Alpha-glucosidase [1]) was 65 µM and the Ki (Alpha-glucosidase [2]) was 64 µM.

`Cc1ccc(-c2cc(-c3ccc(Br)cc3)nc(SCc3ccc(Cl)cc3)n2)cc1` gave an IC50 (Alpha-glucosidase [3]) of 19.6 µM.

`Cc1ccc(NC(=O)C(C)Sc2nnc(-c3ccc(Cl)cc3)o2)cc1C` (stereo not drawn) gave an IC50 (Alpha-glucosidase [4]) of 52.63 µM.

Compound `COc1cc2c(=O)c(-c3ccccc3)coc2cc1O/C(=C\N(C)C)C(=O)c1ccc(Cl)cc1` has a pIC50 [5] of 3.05.

Work on `O=c1c2ccccc2n2ncnc2n1OCc1ccccc1` yielded a pIC50 [6] of 4.90.

Work on `O=C(COc1ccc(C(c2c(O)c3ccccc3oc2=O)c2c(O)c3ccccc3oc2=O)cc1)Nc1ccc(Br)cc1` yielded an IC50 (Alpha-glucosidase [1]) of 41.73 µM, a Ratio IC50 [7] of 18 and a Ki (Alpha-glucosidase [2]) of 44 µM.

Work on `O=C(Cn1c(-c2ccc(Cl)cc2)nc2ccccc2c1=O)N/N=C/c1cn(-c2ccccc2)nc1-c1ccc(Br)cc1` yielded an IC50 (Alpha-glucosidase [8]) of 60.5 µM and a Ki (Alpha-glucosidase [9]) of 56 µM.

`CCCCCCSc1nc2ccccc2n1CC(=O)NN1C(=O)CSC1c1ccc([N+](=O)[O-])cc1` (stereo not drawn) gave a pIC50 [10] of 5.28.

For `O=C(COc1ccc(-c2nc(-c3ccccc3)c(-c3ccccc3)[nH]2)cc1)Nc1cccc(Br)c1`, the Ki (Alpha-glucosidase [9]) was 86.3 µM and the IC50 (Alpha-glucosidase [11]) was 90 µM.

Work on `COc1ccc(/C(CSc2nc3ccccc3[nH]2)=N/N=C/c2ccc(OC)cc2O)cc1` yielded a pIC50 [12] of 5.66.

`CSn1c(=O)c2ccccc2n2ncnc12` showed a pIC50 [6] of 4.14.

Work on `Clc1ccc(C2=NOC(c3ccccc3)N2c2ccc(Cl)cc2)cc1` (stereo not drawn) yielded a Ki (Alpha-glucosidase [13]) of 122 µM and an IC50 (Alpha-glucosidase [11]) of 215 µM.

With `CCn1c(=O)c2ccccc2n2ncnc12` the pIC50 [6] was 4.54.

Compound `O=c1cc(-c2ccc(OCc3cn(Cc4ccc(Cl)cc4)nn3)cc2)oc2ccccc12` has an IC50 (Alpha-glucosidase [1]) of 24.77 µM and a Ratio IC50 [7] of 35.

`O=C(NNS(=O)(=O)c1ccccc1F)c1cc2cc(F)ccc2[nH]1` gave an IC50 (Alpha-glucosidase [14]) of 3.2 µM.

Compound `CCCCCCSc1nc2ccccc2n1CC(=O)NN1C(=O)CSC1c1ccc(C=O)cc1` (stereo not drawn) has a pIC50 [10] of 5.24.

For `CN1CCN(c2ccc3[nH]c(-c4ccc(O)cc4)nc3c2)CC1`, the IC50 (Alpha-glucosidase [15]) was 2.25 µM.

With `O=C(N/N=C/c1ccc(O)c(O)c1)c1cc2ccccc2oc1=O` the IC50 (Alpha-glucosidase [16]) was 1.1 µM.

In the case of `O=C1Cc2ccccc2C(O)C1C(c1ccc(OCc2cn(Cc3ccccc3Cl)nn2)cc1)c1c(O)c2ccccc2oc1=O` (stereo not drawn), the IC50 (Alpha-glucosidase [11]) was 13 µM.

Compound `O=C(NNS(=O)(=O)c1ccc(Br)cc1)c1cc2cc(F)ccc2[nH]1` has an IC50 (Alpha-glucosidase [14]) of 4.7 µM.

`CS(=O)(=O)n1c(=O)c2ccccc2n2ncnc12` showed a pIC50 [6] of 4.08.

Compound `CC(=O)Nc1ccc(-c2[nH]c3ccc(F)cc3c2-c2nc(-c3ccccc3)c(-c3ccccc3)n2-c2ccccc2)cc1` has a pIC50 [17] of 5.08.

Compound `O=c1oc2ccc(Br)cc2cc1-c1nn(-c2ccccc2)cc1-c1nc(-c2ccccc2)c(-c2ccccc2)n1-c1ccc(Cl)cc1` has an IC50 (Alpha-glucosidase [18]) of 2.53 µM.

In the case of `C=c1[nH]c(=O)s/c1=C/c1ccc(Oc2nc3ccccc3n2Cc2ccc(Cl)cc2)cc1`, the pIC50 [19] was 6.27.

`Oc1ccccc1-c1nn(CNN2CCOCC2)c(=S)o1` showed a pIC50 [20] of 4.37 and an inhibition (Homo sapiens [21]) of 82%.

With `O=C(N/N=C\c1ccccc1OCCCN1C(=O)c2ccccc2C1=O)c1cc2ccccc2oc1=O` the IC50 (Alpha-glucosidase [1]) was 85.2 µM.

`COc1ccccc1N1C(=O)/C(=C\c2ccc(F)cc2)S/C1=N\NC(=O)c1cc2ccccc2oc1=O` showed a pIC50 [22] of 7.05.

With `Cc1ccc(S(=O)(=O)n2cc(-c3oc4cc(Br)cc(Br)c4c(=O)c3O)c3ccccc32)cc1` the pIC50 [23] was 4.15.

Compound `O=C(c1ccccc1)c1ccc2nc(-c3ccc(O)cc3)[nH]c2c1` has an IC50 (Alpha-glucosidase [14]) of 11.02 µM.

For `C/C=C/n1c(=O)c2ccccc2n2ncnc12`, the pIC50 [6] was 4.34.

For `O=C1Nc2ccccc2C1(c1cn(Cc2ccccc2F)c2ccccc12)c1cn(Cc2ccccc2F)c2ccccc12`, the IC50 (Alpha-glucosidase [3]) was 5.98 µM.

`Nc1ccccc1-c1nn(CNN2CCOCC2)c(=S)o1` gave a pIC50 [20] of 4.27 and an inhibition (Homo sapiens [21]) of 85%.

In the case of `Fc1ccc(-c2cn3c(Cc4n[nH]c(=S)n4-c4cccc5ccccc45)csc3n2)cc1`, the Ratio IC50 (Homo sapiens [24]) was 47 and the pIC50 [25] was 5.34.
